Experimental data as given in article PMC10668980, “Molecular Cloning, Heterologous Expression, Purification, and Evaluation of Protein–Ligand Interactions of CYP51 of Candida krusei Azole-Resistant Fungal Strain” (Biomedicines, 2023).
Where two headings read alike, the source gives them in different places.

Experiments:
[1] = target: T1, C. krusei CYP51 (C.krCYP51) (Pichia kudriavzevii, UniProt A9YUC7, K136R); test: biochemical
Protocol: (§1) Dissociation constants of complexes of CYP51 with the substrate, inhibitors, and potential ligands were determined by the spectrophotometric titration method in [37]. Briefly, a protein solution (final concentration of 1 μM) in buffer (50 mM potassium phosphate buffer, pH 7.4) was placed in two cuvettes (1 × 1 cm), and a baseline was recorded on a spectrophotometer at a wavelength of 350–500 nm. The spectra were detected with a Cary 5000 UV-VIS-NIR spectrophotometer. A ligand solution was added to the experimental cuvette and an equal volume of solvent was added to the control cuvette; the change in optical absorption was recorded in the same wavelength range. The solutions in the cuvettes were thoroughly mixed by pipetting after adding the ligand solution or solvent and incubated for 1–2 min. The maximum and minimum absorption values were registered.
(§2) The dissociation constant of the enzyme–ligand complex (Kd) was used as a parameter characterizing the strength of ligand binding in the active site.

[2] = target: T1, C. krusei CYP51 (C.krCYP51); conditions: for ΔAmax: absorbance change at ligand saturation; for Type of Spectral Response: difference spectrum 350–500 nm
Protocol: as §1, §2

T1 sequence (A9YUC7 2-528 K136R): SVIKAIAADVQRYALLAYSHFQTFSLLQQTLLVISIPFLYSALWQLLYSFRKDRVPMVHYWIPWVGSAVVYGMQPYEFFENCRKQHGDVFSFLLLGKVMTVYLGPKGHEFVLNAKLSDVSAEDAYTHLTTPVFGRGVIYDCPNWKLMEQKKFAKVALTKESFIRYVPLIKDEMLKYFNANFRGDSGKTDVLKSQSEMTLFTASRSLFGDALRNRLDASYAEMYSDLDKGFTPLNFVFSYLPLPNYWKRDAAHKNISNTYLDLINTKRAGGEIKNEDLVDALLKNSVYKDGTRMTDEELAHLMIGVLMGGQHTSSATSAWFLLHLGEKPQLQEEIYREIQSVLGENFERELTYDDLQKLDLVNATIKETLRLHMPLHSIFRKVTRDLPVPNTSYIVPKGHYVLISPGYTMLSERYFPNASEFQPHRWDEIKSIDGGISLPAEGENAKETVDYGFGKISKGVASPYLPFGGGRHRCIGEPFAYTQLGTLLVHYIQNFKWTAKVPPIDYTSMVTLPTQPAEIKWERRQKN

SMILES | Kd [1] [nM] | ΔAmax ([2]; steroid derivatives) | Type of Spectral Response ([2]; steroid derivatives) | ΔAmax ([2]; azoles) | Type of Spectral Response ([2]; azoles)
CC(=O)O[C@@]12C=C[C@]3(C[C@H]1[N+](=O)[O-])C1CCc4cc(O)ccc4C1CC[C@@]32C (stereo partly drawn) [73c, 14,17-etheno-3-hydroxy-16α-nitroestra-1,3,5(10)-trien-17β-yl acetate] | 10700 | 0.0069 | type I | – | –
c1ccc(-c2ccc(C(c3ccccc3)n3ccnc3)cc2)cc1 (stereo not drawn) [Bifonazole] | 3 | – | – | 0.050 | type II
COC1C(OC2CCC3(C)C(C(O)CC4(O)C3CCC3(C)C(C(C)CCC(OC5OC(CO)C(O)C5O)C(C)C)CC(O)C34)C2O)OCC(O)C1O (stereo not drawn) [Ch-4, granulatoside A] | 6950 | 0.0099 | type I | – | –
CC(C)=CCC[C@@H](C)[C@H]1CC[C@@]2(C)C3=C(CC[C@]12C)[C@@]1(C)CC[C@H](O)C(C)(C)[C@@H]1CC3 [Lanosterol] | 2820 | 0.031 | type I | – | –
C[C@@H](c1ncncc1F)[C@](O)(Cn1cncn1)c1ccc(F)cc1F [Voriconazole] | 10 | – | – | 0.023 | type II
CC(C)C(C=C[C@](C)(O)[C@H]1CC[C@H]2[C@@H]3CC=C4C[C@@H](O)CC[C@]4(C)[C@H]3CC[C@@]21C)=NO [compound 99, 3β,20-dihydroxy-24-hydroxyiminocholest-5,22-diene] | 1020 | 0.0047 | type I | – | –
